{
  "source": "patent US20230330025A1",
  "about": "“Particle Modifiers for Multi-Drug Loaded Nanoparticles” (UNIVERSITY OF CONNECTICUT, priority 2022, published 2023)",
  "assay": "In vitro release study (dialysis method)",
  "format": "physicochemical",
  "details": "PBS pH 5.5, 6.5, 7.4; 37 °C; 100 kD dialysis",
  "experimental": "The release study was conducted using a dialysis method with PBS as the buffer media at pH 5.5, 6.5, and 7.4 to simulate the endosomal, tumoral, and plasma conditions, respectively. The pH was adjusted using 1 M HCl solution or 1 M NaOH solution as needed to achieve the desired media pH. Briefly, 5 mL of each formulation were placed in Spectrum Float-A-Lyzer G2 dialysis tubes (Thermo Fisher Scientific, Waltham, MA) with a molecular weight cut-off of 100 kD, which were then immersed in 50 mL of release media. The containers were incubated at 37° C. under shaking at 150 rpm for 96 hours. At 0-, 1-, 2-, 4-, 8-, 12-, 24-, 36-, 48-, 72-, and 96-hour intervals, 500 μL of the sample solution was withdrawn from the release media and replaced with an equal amount of fresh medium. The samples were analyzed using the UPLC-UV method previously described. The error bars were obtained by measuring each sample in triplicate.",
  "note": "Structures can show the parent of a compound that is named as a salt.",
  "data": [
    {"smiles": "COc1cccc2c1C(=O)c1c(O)c3c(c(O)c1C2=O)C[C@@](O)(C(=O)CO)C[C@@H]3O[C@H]1C[C@H](N)[C@H](O)[C@H](C)O1", "note": "[DOX solution, Doxorubicin (hydrochloride salt)]", "values": [
      {"measurement": "DOX passed through membrane by 24 hours", "result": "~100", "unit": "%"},
      {"measurement": "DOX released (passed dialysis membrane) within first 4 hours", "result": "About 80%"}
    ]}
  ]
}
